This note sets out measurements from PubChem BioAssay AID2432 (Johns Hopkins Ion Channel Center, 2010).

The target of the assay is Potassium voltage-gated channel subfamily KQT member 2 (Rattus norvegicus) (UniProt O88943). Nature of the assay: molecular determinants of KCNQ2 potentiation – cell-based, rat KCNQ2, manual patch clamp, mode of action, mechanism study for KCNQ2 potentiator project, late-stage follow-up (AID 2432). As to conditions: HEK293-KCNQ2 manual patch clamp, peak current ratio, at 10 µM; for V1/2: stronger effect = lower value. A general note: In patch-clamp work, channel activity is measured electrically.
Chain of Potassium voltage-gated channel subfamily KQT member 2 (Rattus norvegicus) (O88943 whole entry, looked up): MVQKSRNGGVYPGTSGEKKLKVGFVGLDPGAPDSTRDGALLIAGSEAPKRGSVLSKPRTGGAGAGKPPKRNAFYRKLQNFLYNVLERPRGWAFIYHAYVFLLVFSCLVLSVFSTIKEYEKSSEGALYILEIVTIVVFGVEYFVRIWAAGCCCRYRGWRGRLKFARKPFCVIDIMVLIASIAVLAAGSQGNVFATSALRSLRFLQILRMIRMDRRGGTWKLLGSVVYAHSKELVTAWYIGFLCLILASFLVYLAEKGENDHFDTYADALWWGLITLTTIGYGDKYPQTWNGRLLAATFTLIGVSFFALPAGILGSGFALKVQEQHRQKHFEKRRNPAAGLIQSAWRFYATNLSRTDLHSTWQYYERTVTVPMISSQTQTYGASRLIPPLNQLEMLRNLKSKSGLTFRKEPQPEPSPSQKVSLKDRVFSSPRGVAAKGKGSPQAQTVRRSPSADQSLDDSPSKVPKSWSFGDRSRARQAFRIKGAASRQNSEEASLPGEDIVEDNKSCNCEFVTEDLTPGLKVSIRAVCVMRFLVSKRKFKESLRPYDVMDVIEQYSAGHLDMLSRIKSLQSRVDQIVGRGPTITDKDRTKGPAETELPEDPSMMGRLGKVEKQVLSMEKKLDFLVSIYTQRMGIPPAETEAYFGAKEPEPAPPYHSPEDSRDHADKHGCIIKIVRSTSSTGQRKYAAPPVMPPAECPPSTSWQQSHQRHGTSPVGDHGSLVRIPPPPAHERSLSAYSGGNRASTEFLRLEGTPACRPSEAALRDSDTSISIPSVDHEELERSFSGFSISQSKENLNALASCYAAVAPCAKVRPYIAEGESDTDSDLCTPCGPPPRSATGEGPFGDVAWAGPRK

For `O=C(Nc1ccc(Cl)nc1)c1ccc(F)cc1`, the current ratio I/I0 reads like this: (stronger effect = higher value) 1.9; (measured here: L249A mutant current ratio, stronger effect = higher value) 1.8; (measured here: L249A/L275A double mutant current ratio, stronger effect = higher value) 2.3; (measured here: L275A mutant current ratio, stronger effect = higher value) 1.8; (measured here: W236L mutant current ratio, stronger effect = higher value) 1.7. For the same compound, the V1/2 reads like this: (measured here: L249A mutant V1/2) -41.8 mV; (measured here: L249A/L275A double mutant V1/2) -9.1 mV; (measured here: L275A mutant V1/2) -28.3 mV; (measured here: W236L mutant V1/2) -38.6 mV; (measured here: WT half-activation voltage with compound) -55.3 mV. Where the note is “measured here: WT deactivation time constant, stronger effect = higher value”, the deactivation tau came to 172 ms.
